Drawing on ChEMBL document CHEMBL3991601, “The target landscape of clinical kinase drugs” (Science, 2017), this text covers Kd for twelve compounds.

Test [1] addresses Calcium/calmodulin-dependent protein kinase type II subunit gamma (Homo sapiens, UniProt Q13555).
Test [2] concerns the target Ribosomal protein S6 kinase alpha-6 (Homo sapiens, UniProt Q9UK32).
For test [3], the target named is Mitogen-activated protein kinase kinase kinase kinase 1 (Homo sapiens, UniProt Q92918).
Test [4] deals with T1, Dual specificity mitogen-activated protein kinase kinase 6 (Homo sapiens, UniProt P52564).
T1 sequence (P52564 whole entry): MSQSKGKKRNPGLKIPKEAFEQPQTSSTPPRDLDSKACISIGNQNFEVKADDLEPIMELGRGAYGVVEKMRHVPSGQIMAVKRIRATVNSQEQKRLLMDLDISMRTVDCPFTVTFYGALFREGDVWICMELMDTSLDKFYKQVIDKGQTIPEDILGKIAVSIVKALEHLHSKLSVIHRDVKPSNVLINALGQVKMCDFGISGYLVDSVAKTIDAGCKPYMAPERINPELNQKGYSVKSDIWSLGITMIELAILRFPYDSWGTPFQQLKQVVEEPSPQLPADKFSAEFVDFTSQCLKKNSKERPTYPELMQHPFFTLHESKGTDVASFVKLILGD

For test [5], the target named is Tyrosine-protein kinase Lyn (Homo sapiens, UniProt P07948).
The target in test [6] is Serine/threonine-protein kinase 26 (Homo sapiens, UniProt Q9P289).
The target in test [7] is T2, EKC/KEOPS complex subunit TP53RK (Homo sapiens, UniProt Q96S44).
T2 sequence (Q96S44 whole entry): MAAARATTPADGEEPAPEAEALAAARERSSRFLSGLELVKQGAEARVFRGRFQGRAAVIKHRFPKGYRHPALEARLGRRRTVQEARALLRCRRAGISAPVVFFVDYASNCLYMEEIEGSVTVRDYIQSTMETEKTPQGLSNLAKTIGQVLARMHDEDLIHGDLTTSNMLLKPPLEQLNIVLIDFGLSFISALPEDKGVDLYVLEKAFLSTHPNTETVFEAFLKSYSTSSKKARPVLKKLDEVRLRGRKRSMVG

Test [8] deals with T3, Mitogen-activated protein kinase kinase kinase kinase 2 (Homo sapiens, UniProt Q12851).
T3 sequence (Q12851 whole entry): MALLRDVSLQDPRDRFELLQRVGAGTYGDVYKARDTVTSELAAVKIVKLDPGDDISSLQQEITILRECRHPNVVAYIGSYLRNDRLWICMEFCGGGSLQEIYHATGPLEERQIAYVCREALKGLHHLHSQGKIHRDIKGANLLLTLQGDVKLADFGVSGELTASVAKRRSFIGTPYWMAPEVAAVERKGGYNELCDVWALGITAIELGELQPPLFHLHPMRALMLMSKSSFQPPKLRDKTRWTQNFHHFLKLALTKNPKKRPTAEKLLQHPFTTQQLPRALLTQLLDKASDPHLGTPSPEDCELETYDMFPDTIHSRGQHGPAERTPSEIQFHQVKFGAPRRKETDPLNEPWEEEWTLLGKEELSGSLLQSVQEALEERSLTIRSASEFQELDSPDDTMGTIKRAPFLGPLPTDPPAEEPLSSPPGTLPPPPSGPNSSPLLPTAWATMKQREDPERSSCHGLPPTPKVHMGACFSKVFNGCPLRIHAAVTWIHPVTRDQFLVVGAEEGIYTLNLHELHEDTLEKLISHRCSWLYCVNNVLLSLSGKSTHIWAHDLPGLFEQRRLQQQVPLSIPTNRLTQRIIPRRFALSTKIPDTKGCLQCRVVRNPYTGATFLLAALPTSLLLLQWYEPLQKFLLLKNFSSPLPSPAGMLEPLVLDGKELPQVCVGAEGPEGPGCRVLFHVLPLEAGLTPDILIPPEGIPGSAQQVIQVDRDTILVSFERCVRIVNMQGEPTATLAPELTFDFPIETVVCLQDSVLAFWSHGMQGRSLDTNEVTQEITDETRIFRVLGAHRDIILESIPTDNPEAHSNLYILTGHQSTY

For test [9], the target named is T4, Discoidin domain-containing receptor 2 (Homo sapiens, UniProt Q16832).
T4 sequence (Q16832 whole entry): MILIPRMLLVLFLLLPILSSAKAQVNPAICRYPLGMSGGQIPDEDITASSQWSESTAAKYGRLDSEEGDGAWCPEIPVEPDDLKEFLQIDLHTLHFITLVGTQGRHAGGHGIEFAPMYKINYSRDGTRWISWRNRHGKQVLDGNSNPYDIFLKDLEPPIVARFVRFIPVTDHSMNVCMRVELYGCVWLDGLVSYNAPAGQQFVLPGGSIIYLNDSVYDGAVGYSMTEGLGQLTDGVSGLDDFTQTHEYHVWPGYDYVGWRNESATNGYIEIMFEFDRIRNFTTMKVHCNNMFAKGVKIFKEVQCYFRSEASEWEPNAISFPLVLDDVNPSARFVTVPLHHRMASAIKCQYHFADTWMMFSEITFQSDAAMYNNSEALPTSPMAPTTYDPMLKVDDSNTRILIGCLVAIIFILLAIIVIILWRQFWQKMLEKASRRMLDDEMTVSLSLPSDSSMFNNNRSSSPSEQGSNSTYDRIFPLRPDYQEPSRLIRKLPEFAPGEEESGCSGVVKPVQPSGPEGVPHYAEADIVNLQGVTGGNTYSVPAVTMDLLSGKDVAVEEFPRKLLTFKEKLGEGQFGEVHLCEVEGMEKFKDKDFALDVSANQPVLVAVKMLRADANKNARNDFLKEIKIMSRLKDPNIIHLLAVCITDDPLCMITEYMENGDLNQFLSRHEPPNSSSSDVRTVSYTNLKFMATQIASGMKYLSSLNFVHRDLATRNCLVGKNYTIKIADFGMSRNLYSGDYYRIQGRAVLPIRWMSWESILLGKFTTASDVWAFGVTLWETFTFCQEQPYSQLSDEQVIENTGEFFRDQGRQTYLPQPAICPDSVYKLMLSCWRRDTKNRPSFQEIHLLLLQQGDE

The source made the active and inactive calls. Cut-off read from the data, not from the text of the source, for most assays here: actives have a measured Kd and inactives only a lower limit. Some results are limits rather than exact numbers.
Note: in the data inactive means no Kd found up to 30 µM.

Chain of Serine/threonine-protein kinase 26 (Q9P289 whole entry): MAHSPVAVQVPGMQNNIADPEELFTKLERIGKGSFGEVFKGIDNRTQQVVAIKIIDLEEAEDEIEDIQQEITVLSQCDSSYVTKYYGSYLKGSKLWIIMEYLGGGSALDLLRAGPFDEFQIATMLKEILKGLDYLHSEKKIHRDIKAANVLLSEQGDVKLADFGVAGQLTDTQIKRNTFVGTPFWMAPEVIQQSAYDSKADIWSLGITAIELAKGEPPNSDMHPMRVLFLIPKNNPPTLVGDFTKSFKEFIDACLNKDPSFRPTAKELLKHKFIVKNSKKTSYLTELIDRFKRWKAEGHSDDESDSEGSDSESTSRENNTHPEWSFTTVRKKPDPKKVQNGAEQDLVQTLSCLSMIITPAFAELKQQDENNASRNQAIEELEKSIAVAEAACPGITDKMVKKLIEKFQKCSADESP
Chain of Mitogen-activated protein kinase kinase kinase kinase 1 (Q92918 whole entry): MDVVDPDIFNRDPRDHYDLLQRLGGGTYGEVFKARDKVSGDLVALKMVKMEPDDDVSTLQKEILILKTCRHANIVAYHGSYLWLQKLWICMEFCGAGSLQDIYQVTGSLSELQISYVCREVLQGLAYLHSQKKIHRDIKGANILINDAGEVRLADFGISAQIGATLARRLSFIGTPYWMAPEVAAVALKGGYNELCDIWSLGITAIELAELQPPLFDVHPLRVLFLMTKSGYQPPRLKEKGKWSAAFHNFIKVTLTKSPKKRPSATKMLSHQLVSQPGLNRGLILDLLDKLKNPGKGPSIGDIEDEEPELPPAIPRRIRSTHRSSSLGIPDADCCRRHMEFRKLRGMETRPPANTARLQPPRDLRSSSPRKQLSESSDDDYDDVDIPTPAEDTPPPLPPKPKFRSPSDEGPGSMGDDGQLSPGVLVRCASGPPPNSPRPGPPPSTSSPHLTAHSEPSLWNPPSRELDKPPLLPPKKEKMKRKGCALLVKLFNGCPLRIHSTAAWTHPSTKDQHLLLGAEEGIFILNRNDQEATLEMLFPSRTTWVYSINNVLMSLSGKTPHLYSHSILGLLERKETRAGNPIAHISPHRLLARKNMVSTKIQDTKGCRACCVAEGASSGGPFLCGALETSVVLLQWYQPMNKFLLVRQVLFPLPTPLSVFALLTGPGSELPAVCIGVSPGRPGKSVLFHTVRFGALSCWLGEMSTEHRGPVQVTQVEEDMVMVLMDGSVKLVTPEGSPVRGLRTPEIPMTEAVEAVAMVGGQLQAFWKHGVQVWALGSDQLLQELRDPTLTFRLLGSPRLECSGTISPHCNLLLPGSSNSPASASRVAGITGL
Chain of Tyrosine-protein kinase Lyn (P07948 whole entry): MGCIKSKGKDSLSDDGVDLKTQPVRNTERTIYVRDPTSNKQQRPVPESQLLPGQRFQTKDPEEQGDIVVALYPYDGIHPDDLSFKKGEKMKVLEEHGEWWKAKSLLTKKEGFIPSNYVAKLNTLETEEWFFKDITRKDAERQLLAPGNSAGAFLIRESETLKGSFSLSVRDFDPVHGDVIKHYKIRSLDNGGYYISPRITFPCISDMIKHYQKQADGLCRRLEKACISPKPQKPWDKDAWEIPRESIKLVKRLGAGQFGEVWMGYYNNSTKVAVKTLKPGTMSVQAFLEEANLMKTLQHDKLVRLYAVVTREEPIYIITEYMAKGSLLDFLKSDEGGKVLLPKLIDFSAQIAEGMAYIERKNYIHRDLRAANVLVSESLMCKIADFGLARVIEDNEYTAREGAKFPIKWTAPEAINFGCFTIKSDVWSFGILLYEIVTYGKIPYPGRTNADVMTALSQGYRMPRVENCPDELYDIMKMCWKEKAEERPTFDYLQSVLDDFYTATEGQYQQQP
Chain of Ribosomal protein S6 kinase alpha-6 (Q9UK32 whole entry): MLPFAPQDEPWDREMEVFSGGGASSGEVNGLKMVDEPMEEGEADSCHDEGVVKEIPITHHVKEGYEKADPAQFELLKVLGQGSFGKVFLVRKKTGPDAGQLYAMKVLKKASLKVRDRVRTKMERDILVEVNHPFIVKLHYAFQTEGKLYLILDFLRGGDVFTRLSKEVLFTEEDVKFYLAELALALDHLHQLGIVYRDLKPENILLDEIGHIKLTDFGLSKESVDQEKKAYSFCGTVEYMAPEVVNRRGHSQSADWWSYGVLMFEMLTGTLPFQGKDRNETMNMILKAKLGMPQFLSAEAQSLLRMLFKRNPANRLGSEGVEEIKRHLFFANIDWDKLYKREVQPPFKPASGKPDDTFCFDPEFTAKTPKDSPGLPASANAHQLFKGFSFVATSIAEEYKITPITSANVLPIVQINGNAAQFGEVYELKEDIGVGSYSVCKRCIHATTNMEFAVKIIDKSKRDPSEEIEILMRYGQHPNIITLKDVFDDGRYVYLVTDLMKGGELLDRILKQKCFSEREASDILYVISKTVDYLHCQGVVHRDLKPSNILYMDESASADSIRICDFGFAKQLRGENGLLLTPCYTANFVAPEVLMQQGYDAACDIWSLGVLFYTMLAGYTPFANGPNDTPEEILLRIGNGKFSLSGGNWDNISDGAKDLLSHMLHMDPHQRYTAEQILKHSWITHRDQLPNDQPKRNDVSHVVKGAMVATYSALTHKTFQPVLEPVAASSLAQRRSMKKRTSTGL
Chain of Calcium/calmodulin-dependent protein kinase type II subunit gamma (Q13555 whole entry): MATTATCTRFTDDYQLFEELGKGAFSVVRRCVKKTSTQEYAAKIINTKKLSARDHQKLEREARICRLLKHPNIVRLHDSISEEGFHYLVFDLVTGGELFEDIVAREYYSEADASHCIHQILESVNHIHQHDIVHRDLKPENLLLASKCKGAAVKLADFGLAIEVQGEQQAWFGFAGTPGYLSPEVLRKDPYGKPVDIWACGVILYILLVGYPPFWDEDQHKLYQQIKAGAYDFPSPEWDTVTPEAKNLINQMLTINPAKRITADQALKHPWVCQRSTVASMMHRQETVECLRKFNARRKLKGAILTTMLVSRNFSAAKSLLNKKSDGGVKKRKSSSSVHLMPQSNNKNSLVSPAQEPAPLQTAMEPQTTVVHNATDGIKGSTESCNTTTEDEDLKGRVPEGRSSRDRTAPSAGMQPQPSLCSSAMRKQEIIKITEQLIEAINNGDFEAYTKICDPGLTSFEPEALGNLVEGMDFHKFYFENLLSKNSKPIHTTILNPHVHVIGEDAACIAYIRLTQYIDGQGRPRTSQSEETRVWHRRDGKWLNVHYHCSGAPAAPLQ

As for `CC1(COc2ccc3c(c2)ncn3-c2ccc3cccc(N4CCC(N)CC4)c3n2)COC1` [CRENOLANIB], the Kd in test [1] was 0.766 µM (active); in test [2], 1.98 µM (active); in [3], > 30 µM (inactive); in [4], > 30 µM (inactive); in test [5], > 30 µM (inactive); in test [6] it was 0.013 µM (active). For the same compound, the Kd in test [7], in [8] and in [9] was > 30 µM (inactive) in each case.
`Cn1c(=O)c(F)c(Nc2ccc(I)cc2F)c2c(=O)n(C[C@@H](O)CO)cnc21` [TAK-733]: the Kd in test [1], in test [2], in test [3], in test [4], in test [5] and in test [6] was > 30 µM (inactive) each time. Further, the Kd in test [7], in [8] and in test [9] was > 30 µM (inactive) each time.
As for `COc1cc2ncnc3c2cc1OCCCCCN(C)Cc1ccc(Br)cc1N3` [JNJ-26483327], the Kd in test [1], in test [2], in [3], in [4], in test [5] and in test [6] was > 30 µM (inactive) throughout. For the same compound, the Kd in [7], in test [8] and in test [9] was > 30 µM (inactive) in each case.
For the compound `FC(F)(F)c1ccc(CNc2ccc(Cc3c[nH]c4ncc(Cl)cc34)cn2)cn1` [PEXIDARTINIB], the Kd in [1], in test [2], in test [3], in test [4], in [5] and in test [6] was > 30 µM (inactive) in each case. Also, the Kd in test [7], in test [8] and in [9] was > 30 µM (inactive) throughout.
Consider `COc1ccc2c(OCc3nnc4ccc(-c5ccccc5)nn34)ccnc2c1` [AMG-208], for which the Kd in test [1], in test [2], in [3], in [4], in test [5] and in test [6] was > 30 µM (inactive) throughout. Moreover, the Kd in [7], in test [8] and in [9] was > 30 µM (inactive) in each case.
`O=C(NC[C@H](O)CO)c1ccncc1Nc1ccc(I)cc1F` [PIMASERTIB]: the Kd in test [1], in [2], in [3], in [4], in test [5] and in test [6] was > 30 µM (inactive) in each case. Moreover, the Kd in [7], in test [8] and in test [9] was > 30 µM (inactive) each time.
As to `c1cc(OCCN2CCCCC2)cc(-c2n[nH]c3ccc(-c4nc[nH]n4)cc23)c1` [CC-401], the Kd in test [1], in [2], in test [3], in [4], in [5] and in test [6] was > 30 µM (inactive) throughout. Moreover, the Kd in test [7], in test [8] and in test [9] was > 30 µM (inactive) throughout.
With `NC(=O)c1ccc(N(C(N)=O)c2c(F)cccc2F)nc1-c1ccc(F)cc1F` [VX-702], the Kd in test [1], in test [2], in [3], in test [4], in test [5] and in test [6] was > 30 µM (inactive) in each case. For the same compound, the Kd in test [7], in test [8] and in test [9] was > 30 µM (inactive) each time.
As for `CC[C@@](C)(Nc1ccnc(-c2c[nH]c3ncccc23)n1)C(=O)NCC(F)(F)F` [DECERNOTINIB], the Kd in test [1] is 14.3 µM; in test [2], > 30 µM (inactive); in test [3], > 30 µM (inactive); in test [4], > 30 µM (inactive); in test [5], > 30 µM (inactive); in test [6] it was 1.14 µM (active). The Kd in [7] is 2.83 µM (active); in [8] it was > 30 µM (inactive); in test [9], > 30 µM (inactive).
As for `CC(C)(O)CC(=O)NCCn1ccc2ncnc(Nc3ccc(Oc4cccc(C(F)(F)F)c4)c(Cl)c3)c21` [TAK-285], the Kd in test [1], in test [2], in test [3], in [4], in test [5] and in [6] was > 30 µM (inactive) in each case. For the same compound, the Kd in [7], in test [8] and in test [9] was > 30 µM (inactive) each time.
As to `COc1cc2ncnc(Nc3ccc(O)cc3)c2cc1OC` [WHI-P131], the Kd in test [1] is > 30 µM (inactive); in [2], 5.9 µM (active); in [3], > 30 µM (inactive); in test [4], > 30 µM (inactive); in test [5], > 30 µM (inactive); in [6], > 30 µM (inactive). Further, the Kd in [7], in [8] and in [9] was > 30 µM (inactive) in each case.
As to `CNC(=O)c1cc(COc2nnc(Nc3ccc(Cl)cc3)c3ccoc23)ccn1` [TELATINIB], the Kd in [1], in test [2], in test [3], in test [4], in test [5] and in test [6] was > 30 µM (inactive) throughout. The Kd in test [7], in [8] and in test [9] was > 30 µM (inactive) in each case.
